# Tested on: HMPV clinical isolate A2 strain TN 94-49
# Test: HMPV antiviral assay, Method 2 (LLC-MK2 cells with CP-100-356, ATP-Lite)
# Format: cell-based
# Settings: human metapneumovirus; hMPV A2 TN/94-49, LLC-MK2 cells with CP-100-356, Method 2
# How it was run: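 EC50 comes from a four-parameter fit of percent cell viability (ATP-Lite, normalized to virus-only and cell-only wells) after 7 days at 37 °C. Infection used HMPV A2 TN 94-49 at MOI 0.16 in LLC-MK2 cells, with 2 μM P-gp inhibitor CP-100-356 and 2 μg/mL TPCK-trypsin final; dose range 200 nM top, 2.5-fold, 10 points, duplicate.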
row,SMILES,EC50 [nM]
1,COc1cc(C(=O)NCC(O)(c2cccc(F)c2)c2cc3c(c(-c4cccc(Cl)c4C#N)n2)OC[C@]3(C)C(N)=O)cc2cn(C3(F)CC3)nc12 (stereo partly drawn) [Example 399],> 200
2,COc1cc(C(=O)NC[C@@](O)(c2cccc(F)c2)c2cc3c(c(-c4cc(F)c(F)cc4C(N)=O)n2)OC[C@]3(C)C(N)=O)cc2cn(C3(F)CC3)nc12 [Example 405],> 200
3,COc1cc(C(=O)NC[C@](O)(c2cc3c(c(-c4c(C)cncc4C)n2)OC[C@]3(C)C(N)=O)C2CC2)cc2cn(C3CC3)nc12 [Example 431],< 200
4,COc1cc(C(=O)NC[C@](O)(c2cc3c(c(-c4cc(C5CC5)ncc4F)n2)OC[C@]3(C)C(N)=O)C2CC2)cc2cn(C3CC3)nc12 [Example 432],< 200
5,COc1cc(C(=O)NC[C@](O)(c2cc3c(c(-c4c(F)cncc4F)n2)OC[C@]3(C)C(N)=O)C2CC2)cc2cn(C3CC3)nc12 [Example 433],< 200
6,COc1cc(C(=O)NC[C@](O)(c2cc3c(c(-c4c(F)cncc4Cl)n2)OC[C@]3(C)C(N)=O)C2CC2)cc2cn(C3CC3)nc12 [Example 434],< 200
7,COc1cc(C(=O)NC[C@](O)(c2cc3c(c(-c4c(C)cncc4F)n2)OC[C@]3(C)C(N)=O)C2CC2)cc2cn(C3CC3)nc12 [Example 435],< 200
8,COc1cc(C(=O)NC[C@@](O)(c2cc3c(c(-n4ccc5ccccc54)n2)OC[C@]3(C)C(N)=O)C2CC2)cc2cn(C3CC3)nc12 [Example 444],> 200
9,COc1cc(C(=O)NC[C@](O)(c2cc3c(c(-n4ccc5ccccc54)n2)OC[C@]3(C)C(N)=O)C(F)(F)F)cc2cn(C(F)F)nc12 [Example 449],< 200
10,COc1cc(C(=O)NC[C@@](O)(c2cnc(C3CC3)nc2)c2cc3c(c(-c4cc(Cl)c(F)cc4F)n2)OC[C@]3(C)C(N)=O)cc2cn(C3CC3)nc12 [Example 478],< 200
11,COc1cc(C(=O)NC[C@@](O)(c2cncnc2)c2cc3c(c(-c4cc(Cl)c(F)cc4F)n2)OC[C@]3(C)C(N)=O)cc2cn(C3CC3)nc12 [Example 479],< 200
12,COc1cc(C(=O)NC[C@](O)(c2cc3c(c(-c4cc(Cl)c(F)cc4F)n2)OC[C@]3(C)C(N)=O)c2ccnn2C)cc2cn(C3CC3)nc12 [Example 481],< 200
13,COc1cc(C(=O)NC[C@@](O)(c2cccc(S(C)(=O)=O)c2)c2cc3c(c(-c4cc(Cl)c(F)cc4F)n2)OC[C@]3(C)C(N)=O)cc2cn(C3CC3)nc12 [Example 483],< 200
14,COc1cc(C(=O)NC[C@@](O)(c2cccc(S(N)(=O)=O)c2)c2cc3c(c(-c4cc(Cl)c(F)cc4F)n2)OC[C@]3(C)C(N)=O)cc2cn(C3CC3)nc12 [Example 486],> 200
15,COc1cc(C(=O)NC[C@@](O)(c2cnccn2)c2cc3c(c(-c4cc(Cl)c(F)cc4F)n2)OC[C@]3(C)C(N)=O)cc2cn(C3CC3)nc12 [Example 487],< 200
16,COc1cc(C(=O)NC[C@@](O)(c2cccc(C#N)c2)c2cc3c(c(-c4cc(Cl)c(F)cc4F)n2)OC[C@]3(C)C(N)=O)cc2cn(C3CC3)nc12 [Example 488],< 200
17,CNc1cc([C@](O)(CNC(=O)c2cc(OC)c3nn(C4CC4)cc3c2)c2cc3c(c(-c4cc(Cl)c(F)cc4F)n2)OC[C@]3(C)C(N)=O)ccn1 [Example 490],< 200
18,COc1cc(C(=O)NC[C@@](O)(c2ccnc(F)c2)c2cc3c(c(-c4cccc(Cl)c4Cl)n2)OC[C@]3(C)C(N)=O)cc2cn(C3CC3)nc12 [Example 492],< 200
19,COc1cc(C(=O)NC[C@@](O)(c2cccc(C(C)O)c2)c2cc3c(c(-c4cccc(Cl)c4Cl)n2)OC[C@]3(C)C(N)=O)cc2cn(C3CC3)nc12 (stereo partly drawn) [Example 495],> 200

# Second part, the compound after the results:
row,EC50 [nM],SMILES
1,> 200,COc1cc(C(=O)NC[C@](O)(c2cccc(F)c2)c2cc3c(c(-c4cc(F)c(F)cc4C(N)=O)n2)OC[C@]3(C)C(N)=O)cc2cn(C3(F)CC3)nc12 [Example 406]
2,> 200,COc1cc(C(=O)NC[C@](O)(c2cccc(F)c2)c2cc3c(c(-c4cc(C(F)(F)F)ncc4F)n2)OC[C@]3(C)C(N)=O)cc2cn(C3CC3)nc12 [Example 409]
3,> 200,COc1cc(C(=O)NC[C@](O)(c2cccc(F)c2)c2cc3c(c(-c4cc(Cl)ncc4F)n2)OC[C@]3(C)C(N)=O)cc2cn(C3CC3)nc12 [Example 411]
4,> 200,COc1cc(C(=O)NCC(O)(c2cc3c(c(-c4cc(C(F)(F)F)ncc4Cl)n2)OC[C@]3(C)C(N)=O)C2CC2)cc2cn(C3CC3)nc12 (stereo partly drawn) [Example 418]
5,< 200,COc1cc(C(=O)NC[C@](O)(c2cc3c(c(-c4ccnc(Cl)c4C)n2)OC[C@]3(C)C(N)=O)C2CC2)cc2cn(C3CC3)nc12 [Example 427]
6,< 200,COc1cc(C(=O)NC[C@](O)(c2cc3c(c(-c4ccnc(C)c4F)n2)OC[C@]3(C)C(N)=O)C2CC2)cc2cn(C3CC3)nc12 [Example 428]
7,> 200,COc1cc(C(=O)NC[C@](O)(c2cc3c(c(-c4ccnc5[nH]ccc45)n2)OC[C@]3(C)C(N)=O)C2CC2)cc2cn(C3CC3)nc12 [Example 429]
8,< 200,COc1cc(C(=O)NC[C@](O)(c2cc3c(c(-c4ccnc5ccccc45)n2)OC[C@]3(C)C(N)=O)C2CC2)cc2cn(C3CC3)nc12 [Example 430]
9,< 200,COc1cc(C(=O)NC[C@](O)(c2cc3c(c(-n4ccc5cnccc54)n2)OC[C@]3(C)C(N)=O)C2CC2)cc2cn(C3CC3)nc12 [Example 447]
10,> 200,COc1cc(C(=O)NC[C@](O)(c2cc3c(c(-n4ccc5ccncc54)n2)OC[C@]3(C)C(N)=O)C2CC2)cc2cn(C3CC3)nc12 [Example 448]
11,> 200,COc1cc(C(=O)NC[C@](O)(c2cc3c(c(-c4cc(Cl)c(F)cc4F)n2)OC[C@]3(C)C(N)=O)c2nccn2C)cc2cn(C3CC3)nc12 [Example 464]
12,> 200,COc1cc(C(=O)NCC(O)(c2cc3c(c(-c4cc(Cl)c(F)cc4F)n2)OC[C@]3(C)C(N)=O)c2ccc(Cl)s2)cc2cn(C3CC3)nc12 (stereo partly drawn) [Example 472]
13,< 200,COc1cc(C(=O)NC[C@](O)(c2cc3c(c(-c4cc(Cl)c(F)cc4F)n2)OC[C@]3(C)C(N)=O)c2ccn(C)n2)cc2cn(C3CC3)nc12 [Example 480]
14,> 200,COc1cc(C(=O)NC[C@@](O)(c2ccc(S(C)(=O)=O)cc2)c2cc3c(c(-c4cc(Cl)c(F)cc4F)n2)OC[C@]3(C)C(N)=O)cc2cn(C3CC3)nc12 [Example 482]
15,< 200,COc1cc(C(=O)NC[C@@](O)(c2ccnc(N)c2)c2cc3c(c(-c4cc(Cl)c(F)cc4F)n2)OC[C@]3(C)C(N)=O)cc2cn(C3CC3)nc12 [Example 484]
16,< 200,COc1cc(C(=O)NC[C@@](O)(c2ccnc(C)c2)c2cc3c(c(-c4cc(Cl)c(F)cc4F)n2)OC[C@]3(C)C(N)=O)cc2cn(C3CC3)nc12 [Example 485]
17,< 200,COc1cc(C(=O)NC[C@@](O)(c2cccc(Cl)n2)c2cc3c(c(-c4cc(Cl)c(F)cc4F)n2)OC[C@]3(C)C(N)=O)cc2cn(C3CC3)nc12 [Example 489]
18,< 200,COc1cc(C(=O)NC[C@@](O)(c2cnoc2)c2cc3c(c(-c4cc(Cl)c(F)cc4F)n2)OC[C@]3(C)C(N)=O)cc2cn(C3CC3)nc12 [Example 491]
19,< 200,COc1cc(C(=O)NC[C@@](O)(c2cccc(C(C)=O)c2)c2cc3c(c(-c4cccc(Cl)c4Cl)n2)OC[C@]3(C)C(N)=O)cc2cn(C3CC3)nc12 [Example 493]
20,< 200,COc1cc([C@](O)(CNC(=O)c2cc(OC)c3nn(C4CC4)cc3c2)c2cc3c(c(-c4cccc(Cl)c4Cl)n2)OC[C@]3(C)C(N)=O)ccn1 [Example 494]

# Reference: US20240368174A1, “Antiviral Heterocyclic Compounds” (Enanta Pharmaceuticals, Inc., priority 2023, published 2024)
